{"source": "ChEMBL document CHEMBL4138146", "about": "“A Schmidt rearrangement-mediated synthesis of novel tetrahydro-benzo[1,4]diazepin-5-ones as potential anticancer and antiprotozoal agents” (Eur J Med Chem, 2017)", "assay_type_in_all_cases": "functional", "key": {"K562": {"test_system": "K562", "experiment": "Growth inhibition of human K562 cells assessed as cell growth at 10^-8 M incubated for 48 hrs by sulforhodamine B assay relative to control", "details": "K562, 48 h, read-out: Activity"}, "A549": {"test_system": "A549", "experiment": "Growth inhibition of human A549/ATCC cells assessed as cell growth at 10^-8 M incubated for 48 hrs by sulforhodamine B assay relative to control", "details": "A549, 48 h, read-out: Activity"}, "SK-MEL-5 [1]": {"test_system": "SK-MEL-5", "experiment": "Growth inhibition of human SK-MEL-5 cells assessed as cell growth at 10^-4 M incubated for 48 hrs by sulforhodamine B assay relative to control", "details": "SK-MEL-5, 48 h, read-out: Activity"}, "SF-295 [2]": {"test_system": "SF-295", "experiment": "Growth inhibition of human SF295 cells assessed as cell growth at 10^-4 M incubated for 48 hrs by sulforhodamine B assay relative to control", "details": "SF-295, 48 h, read-out: Activity"}, "OVCAR-5": {"test_system": "OVCAR-5", "experiment": "Growth inhibition of human OVCAR5 cells assessed as cell growth at 10^-7 M incubated for 48 hrs by sulforhodamine B assay relative to control", "details": "OVCAR-5, 48 h, read-out: Activity"}, "BT-549": {"test_system": "BT-549", "experiment": "Growth inhibition of human BT549 cells assessed as cell growth at 10^-7 M incubated for 48 hrs by sulforhodamine B assay relative to control", "details": "BT-549, 48 h, read-out: Activity"}, "ACHN": {"test_system": "ACHN", "experiment": "Growth inhibition of human ACHN cells assessed as cell growth at 10^-6 M incubated for 48 hrs by sulforhodamine B assay relative to control", "details": "read-out: Activity"}, "SNB-75": {"test_system": "SNB-75", "experiment": "Growth inhibition of human SNB75 cells assessed as cell growth at 10^-8 M incubated for 48 hrs by sulforhodamine B assay relative to control", "details": "SNB-75, 48 h, read-out: Activity"}, "OVCAR-4 [3]": {"test_system": "OVCAR-4", "experiment": "Growth inhibition of human OVCAR4 cells assessed as cell growth at 10^-4 M incubated for 48 hrs by sulforhodamine B assay relative to control", "details": "OVCAR-4, 48 h, read-out: Activity"}, "786-0": {"test_system": "786-0", "experiment": "Growth inhibition of human 786-0 cells assessed as cell growth at 10^-5 M incubated for 48 hrs by sulforhodamine B assay relative to control", "details": "786-0, 48 h, read-out: Activity"}, "Hs-578T": {"test_system": "Hs-578T", "experiment": "Growth inhibition of human Hs 578T cells assessed as cell growth at 10^-8 M incubated for 48 hrs by sulforhodamine B assay relative to control", "details": "read-out: Activity"}, "SK-OV-3 [4]": {"test_system": "SK-OV-3", "experiment": "Growth inhibition of human SKOV3 cells assessed as cell growth at 10^-7 M incubated for 48 hrs by sulforhodamine B assay relative to control", "details": "SK-OV-3, 48 h, read-out: Activity"}, "Malme-3M": {"test_system": "Malme-3M", "experiment": "Growth inhibition of human MALME-3M cells assessed as cell growth at 10^-4 M incubated for 48 hrs by sulforhodamine B assay relative to control", "details": "read-out: Activity"}, "UO-31": {"test_system": "UO-31", "experiment": "Growth inhibition of human UO31 cells assessed as cell growth at 10^-8 M incubated for 48 hrs by sulforhodamine B assay relative to control", "details": "UO-31, 48 h, read-out: Activity"}, "MOLT-4": {"test_system": "MOLT-4", "experiment": "Growth inhibition of human MOLT4 cells assessed as cell growth at 10^-8 M incubated for 48 hrs by sulforhodamine B assay relative to control", "details": "MOLT-4, 48 h, read-out: Activity"}, "OVCAR-4 [5]": {"test_system": "OVCAR-4", "experiment": "Growth inhibition of human OVCAR4 cells assessed as cell growth at 10^-7 M incubated for 48 hrs by sulforhodamine B assay relative to control", "details": "OVCAR-4, 48 h, read-out: Activity"}, "M14": {"test_system": "M14", "experiment": "Growth inhibition of human M14 cells assessed as cell growth at 10^-6 M incubated for 48 hrs by sulforhodamine B assay relative to control", "details": "M14, 48 h, read-out: Activity"}, "SK-MEL-5 [6]": {"test_system": "SK-MEL-5", "experiment": "Growth inhibition of human SK-MEL-5 cells assessed as cell growth at 10^-8 M incubated for 48 hrs by sulforhodamine B assay relative to control", "details": "SK-MEL-5, 48 h, read-out: Activity"}, "SN12C [7]": {"test_system": "SN12C", "experiment": "Growth inhibition of human SN12C cells assessed as cell growth at 10^-7 M incubated for 48 hrs by sulforhodamine B assay relative to control", "details": "read-out: Activity"}, "UACC-257": {"test_system": "UACC-257", "experiment": "Growth inhibition of human UACC257 cells assessed as cell growth at 10^-4 M incubated for 48 hrs by sulforhodamine B assay relative to control", "details": "UACC-257, 48 h, read-out: Activity"}, "SK-OV-3 [8]": {"test_system": "SK-OV-3", "experiment": "Growth inhibition of human SKOV3 cells assessed as cell growth at 10^-8 M incubated for 48 hrs by sulforhodamine B assay relative to control", "details": "SK-OV-3, 48 h, read-out: Activity"}, "SF-295 [9]": {"test_system": "SF-295", "experiment": "Growth inhibition of human SF295 cells assessed as cell growth at 10^-7 M incubated for 48 hrs by sulforhodamine B assay relative to control", "details": "SF-295, 48 h, read-out: Activity"}, "SN12C [10]": {"test_system": "SN12C", "experiment": "Growth inhibition of human SN12C cells assessed as cell growth at 10^-5 M incubated for 48 hrs by sulforhodamine B assay relative to control", "details": "read-out: Activity"}, "HL-60(TB) [11]": {"test_system": "HL-60(TB)", "experiment": "Growth inhibition of human HL-60(TB) cells assessed as cell growth at 10^-6 M incubated for 48 hrs by sulforhodamine B assay relative to control", "details": "HL-60, 48 h, read-out: Activity"}, "NCI-H522": {"test_system": "NCI-H522", "experiment": "Growth inhibition of human NCI-H522 cells assessed as cell growth at 10^-5 M incubated for 48 hrs by sulforhodamine B assay relative to control", "details": "NCI-H522, 48 h, read-out: Activity"}, "DU-145": {"test_system": "DU-145", "experiment": "Growth inhibition of human DU145 cells assessed as cell growth at 10^-4 M incubated for 48 hrs by sulforhodamine B assay relative to control", "details": "DU-145, 48 h, read-out: Activity"}, "HT-29": {"test_system": "HT-29", "experiment": "Growth inhibition of human HT-29 cells assessed as cell growth at 10^-5 M incubated for 48 hrs by sulforhodamine B assay relative to control", "details": "HT-29, 48 h, read-out: Activity"}, "HL-60(TB) [12]": {"test_system": "HL-60(TB)", "experiment": "Growth inhibition of human HL-60(TB) cells assessed as cell growth at 10^-5 M incubated for 48 hrs by sulforhodamine B assay relative to control", "details": "HL-60, 48 h, read-out: Activity"}, "NCI-H460": {"test_system": "NCI-H460", "experiment": "Growth inhibition of human NCI-H460 cells assessed as cell growth at 10^-5 M incubated for 48 hrs by sulforhodamine B assay relative to control", "details": "NCI-H460, 48 h, read-out: Activity"}, "A498": {"test_system": "A498", "experiment": "Growth inhibition of human A498 cells assessed as cell growth at 10^-6 M incubated for 48 hrs by sulforhodamine B assay relative to control", "details": "A498, 48 h, read-out: Activity"}, "SW-620": {"test_system": "SW-620", "experiment": "Growth inhibition of human SW620 cells assessed as cell growth at 10^-4 M incubated for 48 hrs by sulforhodamine B assay relative to control", "details": "SW-620, 48 h, read-out: Activity"}, "HCT-116": {"test_system": "HCT-116", "experiment": "Growth inhibition of human HCT116 cells assessed as cell growth at 10^-6 M incubated for 48 hrs by sulforhodamine B assay relative to control", "details": "HCT-116, 48 h, read-out: Activity"}, "SN12C [13]": {"test_system": "SN12C", "experiment": "Growth inhibition of human SN12C cells assessed as cell growth at 10^-6 M incubated for 48 hrs by sulforhodamine B assay relative to control", "details": "read-out: Activity"}, "COLO 205": {"test_system": "COLO 205", "experiment": "Growth inhibition of human COLO205 cells assessed as cell growth at 10^-6 M incubated for 48 hrs by sulforhodamine B assay relative to control", "details": "COLO 205, 48 h, read-out: Activity"}}, "data": [{"smiles": "CCCCOc1nc2ccccc2cc1C1CNC(=O)c2ccccc2N1", "note": "(centres undefined)", "values": [{"measurement": "growth at 0.01 µM", "setting": "K562", "result": 102, "unit": "%"}, {"measurement": "growth at 0.01 µM", "setting": "A549", "result": 100, "unit": "%"}, {"measurement": "growth at 100 µM", "setting": "SK-MEL-5 [1]", "result": -24, "unit": "%"}, {"measurement": "growth at 100 µM", "setting": "SF-295 [2]", "result": -69, "unit": "%"}, {"measurement": "growth at 0.1 µM", "setting": "OVCAR-5", "result": 102, "unit": "%"}, {"measurement": "growth at 0.1 µM", "setting": "BT-549", "result": 104, "unit": "%"}, {"measurement": "growth at 1 µM", "setting": "ACHN", "result": 91, "unit": "%"}, {"measurement": "growth at 0.01 µM", "setting": "SNB-75", "result": 73, "unit": "%"}, {"measurement": "growth at 100 µM", "setting": "OVCAR-4 [3]", "result": -37, "unit": "%"}, {"measurement": "growth at 10 µM", "setting": "786-0", "result": 1, "unit": "%"}, {"measurement": "growth at 0.01 µM", "setting": "Hs-578T", "result": 89, "unit": "%"}, {"measurement": "growth at 0.1 µM", "setting": "SK-OV-3 [4]", "result": 98, "unit": "%"}, {"measurement": "growth at 100 µM", "setting": "Malme-3M", "result": -53, "unit": "%"}, {"measurement": "growth at 0.01 µM", "setting": "UO-31", "result": 80, "unit": "%"}, {"measurement": "growth at 0.01 µM", "setting": "MOLT-4", "result": 70, "unit": "%"}, {"measurement": "growth at 0.1 µM", "setting": "OVCAR-4 [5]", "result": 98, "unit": "%"}, {"measurement": "growth at 1 µM", "setting": "M14", "result": 61, "unit": "%"}, {"measurement": "growth at 0.01 µM", "setting": "SK-MEL-5 [6]", "result": 93, "unit": "%"}, {"measurement": "growth at 0.1 µM", "setting": "SN12C [7]", "result": 90, "unit": "%"}, {"measurement": "growth at 100 µM", "setting": "UACC-257", "result": 6, "unit": "%"}, {"measurement": "growth at 0.01 µM", "setting": "SK-OV-3 [8]", "result": 88, "unit": "%"}, {"measurement": "growth at 0.1 µM", "setting": "SF-295 [9]", "result": 88, "unit": "%"}, {"measurement": "growth at 10 µM", "setting": "SN12C [10]", "result": 19, "unit": "%"}, {"measurement": "growth at 1 µM", "setting": "HL-60(TB) [11]", "result": -19, "unit": "%"}, {"measurement": "growth at 10 µM", "setting": "NCI-H522", "result": 25, "unit": "%"}, {"measurement": "growth at 100 µM", "setting": "DU-145", "result": -43, "unit": "%"}, {"measurement": "growth at 10 µM", "setting": "HT-29", "result": 3, "unit": "%"}, {"measurement": "growth at 10 µM", "setting": "HL-60(TB) [12]", "result": -28, "unit": "%"}, {"measurement": "growth at 10 µM", "setting": "NCI-H460", "result": 5, "unit": "%"}, {"measurement": "growth at 1 µM", "setting": "A498", "result": 42, "unit": "%"}, {"measurement": "growth at 100 µM", "setting": "SW-620", "result": -24, "unit": "%"}, {"measurement": "growth at 1 µM", "setting": "HCT-116", "result": 75, "unit": "%"}, {"measurement": "growth at 1 µM", "setting": "SN12C [13]", "result": 84, "unit": "%"}, {"measurement": "growth at 1 µM", "setting": "COLO 205", "result": 98, "unit": "%"}]}]}
